{"source": "patent US8598212B2", "about": "“Therapeutic agent and preventative agent for alzheimer's disease” (Toray Industries, Inc., priority 2010, dated 2013)", "key": {"[1]": {"system": "Alzheimer's disease model rats", "assay": "Morris water maze test in Alzheimer's disease model rats (basal ganglia destroyed with ibotenic acid)", "assay_type": "in vivo, Wistar rats", "details": "30 mg/kg oral once per day from Day 0 after destruction treatment, not given just before trials; Day 10 to Day 12; compared to vehicle-administered group"}, "[2]": {"system": "mouse partial sciatic nerve ligation model", "assay": "von Frey test in mouse partial sciatic nerve ligation model (Seltzer model)", "assay_type": "in vivo, ICR mice", "details": "for inhibition in vivo at 10 mg/kg / von Frey Total Score of 1 Hour after Oral Administration (Mean ± S.E.), Test Compound-Administered Group: dose 10 mg/kg oral; for von Frey Total Score of 1 Hour after Oral Administration (Mean ± S.E.), Test Compound-Administered Group: n = 5-6, 7 days after ligation", "protocol": "As a reference example, the mouse partial sciatic nerve ligation model (Seltzer model), by which neuropathic pain can be evaluated, was used to evaluate the analgesic effect of Compound (I).\nMouse models of partial sciatic nerve ligation were prepared according to Seltzer's method (Malmberg et al., Pain, 1998, vol. 76, p. 215-222). Male ICR mice of 5 weeks old were anesthetized with Sodium pentobarbital (70 mg/kg, i.p.), and thereafter, the sciatic nerve at the femoral region of the right hind limb of each mouse was exposed, and the sciatic nerve was triply ligated tightly with silk suture of 8-0 (NATSUME SEISAKUSHO) under microscope so that only half thickness of the nerve was trapped in the ligature, which mice were used as a ligation group. The mice whose sciatic nerves were exposed but not ligated were used as a sham operation group.\nEvaluation of neuropathic pain (hereinafter “von Frey test”) was carried out as follows. Mice were conditioned for at least 1 hour in an acryl cage for measurement (NATSUME SEISAKUSHO) placed on a wire net. Thereafter, using a filament (North Coast Medical, Inc. CA, USA) which exerted a pressure of 0.16 g, the mice were subjected to mechanical tactile stimulus by applying the filament to the plantar surface of both hindpaws 3 times, each for 3 seconds, with an interval of 3 seconds.\nSeven days after the sciatic nerve ligation, test compounds were orally administered to the mice. Prior to the oral administration of the test compounds, the von Frey test was carried out to split the animals of the ligation group into vehicle groups and test compound-administered groups so that the sums of the total scores of the groups were equalized. The mice of the sham operation groups, the vehicle groups and the test compound-administered groups were subjected to the von Frey test 1 hour, 2 hours and 3 hours after oral administration of a vehicle or a test compound, and the obtained scores were used as an indicator of analgesic effect. As a vehicle of test compound solution or suspension, dimethyl sulfoxide (hereinafter “DMSO”):Tween80:distilled water (1:1:8), 27% hydroxypropyl-β-cyclodextrin (hereinafter “27% HP-β-CD”) or 0.5% MC was used.\nFor evaluation of drug efficacy, data were statistically processed by the unpaired multigroup t test (adjusted by Dunnett), taking the vehicle group of each measurement time as a control."}, "[3]": {"system": "rats with medial septal lesions", "details": "0.5 mg/kg; Ogura et al., 1998; cited from earlier work"}, "[4]": {"system": "rat neuropathic pain model", "details": "Clayton et al., Anesthesiology, 2007; cited from earlier work"}, "[5]": {"system": "rat diabetic neuropathic pain model", "details": "Chen et al., 2009; cited from earlier work"}, "[6]": {"system": "patients with complex regional pain syndrome", "details": "Sinia et al., Clin J Pain, 2007; cited from earlier work"}, "[7]": {"details": "Mus musculus, po, 1 h, relative to vehicle and sham operation groups, read-out: Score Improvement"}}, "note": "Structures can show the parent of a compound that is named as a salt.", "data": [{"smiles": "COc1ccc(-n2nc(C3(O)CCC(O)CC3)cc2-c2ccc(C)cc2)cc1", "note": "(single isomer, unassigned) [Compound 3, 1-(1-(4-methoxyphenyl)-5-(p-tolyl)-1H-pyrazol-3-yl)cyclohexan-cis-1,4-diol]", "values": [{"measurement": "Escape latency in Morris water maze", "setting": "[1]", "value": "statistically significantly shortened"}]}, {"smiles": "COc1ccc(-c2cc(C3(O)CCC(O)CC3)nn2-c2ccc(OC)cc2)cc1", "note": "(stereo not drawn) [Compound 8, 1-(1,5-bis(4-methoxyphenyl)-1H-pyrazol-3-yl)cyclohexan-cis-1,4-diol]", "values": [{"measurement": "inhibition in vivo at 10 mg/kg", "setting": "[2]; [7]", "value": 70, "unit": "%"}]}, {"smiles": "COc1ccc(-n2nc(C3(O)CCC(O)(C(F)(F)F)CC3)cc2-c2ccc(C)cc2)cc1", "note": "(stereo not drawn) [Compound 10, 1-(1-(4-methoxyphenyl)-5-(p-tolyl)-1H-pyrazol-3-yl)-4-(trifluoromethyl)cyclohexan-cis-1,4-diol]", "values": [{"measurement": "inhibition in vivo at 1 mg/kg", "setting": "[2]; Mus musculus, po, 1 h, dose 1 mg/kg oral, relative to vehicle and sham operation groups, read-out: Score Improvement", "value": 78, "unit": "%"}]}, {"smiles": "COc1ccc(-n2nc(C3(O)CCC(O)CC3)cc2-c2ccc(C)nc2)cc1", "note": "(stereo not drawn) [Compound 15, 1-(1-(4-methoxyphenyl)-5-(6-methylpyridin-3-yl)-1H-pyrazol-3-yl)cyclohexan-cis-1,4-diol]", "values": [{"measurement": "inhibition in vivo at 10 mg/kg", "setting": "[2]; [7]", "value": 84, "unit": "%"}, {"measurement": "von Frey Total Score of 1 Hour after Oral Administration (Mean ± S.E.), Test Compound-Administered Group", "setting": "[2]", "value": "1.0 ± 0.4"}]}, {"smiles": "COc1ccc(-c2nc(C3(O)CCC(O)CC3)oc2-c2ccc(OC)cc2)cc1", "note": "(stereo not drawn) [Compound 43, 4-(4,5-bis(4-methoxyphenyl)oxazol-2-yl)cyclohexan-cis-1,4-diol]", "values": [{"measurement": "inhibition in vivo at 10 mg/kg", "setting": "[2]; [7]", "value": 100, "unit": "%"}]}, {"smiles": "CCc1ccc(-c2cc(C3(O)CCC(O)CC3)nn2-c2ccc(OC)cc2)cc1", "note": "(centres unmarked) [Compound 48]", "values": [{"measurement": "inhibition in vivo at 10 mg/kg", "setting": "[2]; [7]", "value": 83, "unit": "%"}, {"measurement": "von Frey Total Score of 1 Hour after Oral Administration (Mean ± S.E.), Test Compound-Administered Group", "setting": "[2]", "value": "1.0 ± 0.5"}]}, {"smiles": "COc1ccc(-n2nc(C3(O)CCC(O)CC3)cc2-c2ccc(C)cc2)cc1F", "note": "(centres unmarked) [Compound 54]", "values": [{"measurement": "inhibition in vivo at 10 mg/kg", "setting": "[2]; [7]", "value": 83, "unit": "%"}]}, {"smiles": "COc1ccc(-n2nc(C3(O)CCC(O)CC3)cc2-c2ccc(C)c(F)c2)cc1", "note": "(centres unmarked) [Compound 55]", "values": [{"measurement": "inhibition in vivo at 3 mg/kg", "setting": "[2]; Mus musculus, po, 1 h, dose 3 mg/kg oral, relative to vehicle and sham operation groups, read-out: Score Improvement", "value": 93, "unit": "%"}]}, {"smiles": "COc1cc2c(cc1OC)C(=O)C(CC1CCN(Cc3ccccc3)CC1)C2", "note": "(centres unmarked) [donepezil hydrochloric acid salt]", "values": [{"measurement": "effectiveness in the Morris water maze test", "setting": "[3]", "value": "effective"}]}, {"smiles": "COc1cc2c(cc1OC)C(=O)C(CC1CCN(Cc3ccccc3)CC1)C2", "note": "(centres unmarked) [donepezil]", "values": [{"measurement": "analgesic effect", "setting": "[4]", "value": "exhibits an analgesic effect"}]}, {"smiles": "CC12CC3CC(C)(C1)CC(N)(C3)C2", "note": "[memantine]", "values": [{"measurement": "analgesic effect", "setting": "[5]", "value": "exhibits an analgesic effect"}, {"measurement": "analgesic effect", "setting": "[6]", "value": "exhibits an analgesic effect"}]}]}
